Broadly, the MIC is the least concentration at which growth counts as inhibited.

Format in all cases: functional
Experiment [1] deals with Pseudomonas aeruginosa. Put plainly: Antimicrobial activity against clinical isolate CF333-2007 Pseudomonas aeruginosa DK2 measured after 18 hrs by microbroth dilution assay. A general note: In broth dilution the organism is exposed to a series of concentrations in liquid medium.
For experiment [2], the system named is Pseudomonas aeruginosa. Description: Synergistic antibacterial activity against clinical isolate CF333-2007 Pseudomonas aeruginosa DK2 assessed as fractional inhibitory concentration index incubated for 18 hrs in presence of Polymyxin B.
In experiment [3] the test system is Pseudomonas aeruginosa. Description: Antimicrobial activity against clinical isolate CF333-2007 Pseudomonas aeruginosa DK2 measured after 18 hrs in presence of polymyxin B by microbroth dilution assay.
Experiment [4] has as its system Pseudomonas aeruginosa. Put plainly: Antimicrobial activity against clinical isolate CF333-2007 Pseudomonas aeruginosa DK2 assessed as polymyxin B MIC measured after 18 hrs by microbroth dilution assay.

Take `O=C(Nc1ccc(N2CCOCC2=O)cc1)c1cc(F)ccc1O`: the MIC in the experiment on Pseudomonas aeruginosa [1] is > 1020 µg/mL.

Regarding `O=C(Nc1ccccc1)c1cc(Cl)ccc1O`, in the experiment on Pseudomonas aeruginosa [2], the “fractional inhibitory concentration index (FICI)” value stood at 0.012. The minimum inhibitory concentration (MIC) with Pseudomonas aeruginosa [3] was 4 µg/mL; in the experiment on Pseudomonas aeruginosa [4] it was 2 µg/mL; in the experiment on Pseudomonas aeruginosa [1], > 1020 µg/mL.

Consider `O=C(Nc1ccc([N+](=O)[O-])cc1Cl)c1ccc(F)cc1O`, for which the “fractional inhibitory concentration index (FICI)” value in the experiment with Pseudomonas aeruginosa [2] is given as 0.066. In addition, the MIC in the experiment on Pseudomonas aeruginosa [3] was 16 µg/mL; in the experiment with Pseudomonas aeruginosa [4], 1 µg/mL.

For `O=C(Nc1ccc([N+](=O)[O-])cc1Cl)c1ccccc1`, the MIC in the experiment on Pseudomonas aeruginosa [3] is > 32 µg/mL; with Pseudomonas aeruginosa [4], > 32 µg/mL; against Pseudomonas aeruginosa [1] it was > 1020 µg/mL.

Regarding `O=C(Nc1ccc([N+](=O)[O-])cc1Cl)c1cc(O)ccc1O`, the minimal inhibitory concentration (MIC) was > 32 µg/mL in the experiment with Pseudomonas aeruginosa [3], > 32 µg/mL in the experiment with Pseudomonas aeruginosa [4] and > 1020 µg/mL against Pseudomonas aeruginosa [1].

In the case of `O=C(Nc1ccc([N+](=O)[O-])cc1O)c1cc(Cl)ccc1O`, the “fractional inhibitory concentration index (FICI)” value with Pseudomonas aeruginosa [2] turned out to be 0.078. For the same molecule, the MIC with Pseudomonas aeruginosa [3] and in the experiment on Pseudomonas aeruginosa [4] was 4 µg/mL throughout.

Regarding `O=C(Nc1ccc(O[C@H]2O[C@H](CO)[C@H](O)[C@H](O)[C@H]2O)cc1Cl)c1cc(Cl)ccc1O`, the figures for the minimal inhibitory concentration (MIC) in the experiment on Pseudomonas aeruginosa [3], in the experiment on Pseudomonas aeruginosa [4] and in the experiment with Pseudomonas aeruginosa [1] were > 32 µg/mL, > 32 µg/mL and > 1020 µg/mL, respectively.

In the case of `COc1ccc(O)c(C(=O)Nc2ccc([N+](=O)[O-])cc2Cl)c1`, in the experiment with Pseudomonas aeruginosa [2], the “fractional inhibitory concentration index (FICI)” value amounted to 0.023. The minimum inhibitory concentration (MIC) with Pseudomonas aeruginosa [3] is 8 µg/mL; in the experiment on Pseudomonas aeruginosa [4], 4 µg/mL; in the experiment on Pseudomonas aeruginosa [1] it was > 1020 µg/mL.

As for `O=C(Nc1ccc(S(=O)(=O)N2CCOCC2)cc1)c1cc(F)ccc1O`, the MIC in the experiment on Pseudomonas aeruginosa [1] was > 1020 µg/mL.

For the molecule `O=C(Nc1ccc([N+](=O)[O-])cc1Cl)c1ccncc1`, the minimum inhibitory concentration (MIC) in the experiment on Pseudomonas aeruginosa [3] was > 32 µg/mL; with Pseudomonas aeruginosa [4], > 32 µg/mL; in the experiment on Pseudomonas aeruginosa [1] it was > 1020 µg/mL.

Take `O=C(Nc1ccc(O)cc1Cl)c1cc(Cl)ccc1O`: in the experiment with Pseudomonas aeruginosa [2], the “fractional inhibitory concentration index (FICI)” value came out at 0.141. Besides, the MIC in the experiment with Pseudomonas aeruginosa [3] came out at 32 µg/mL; with Pseudomonas aeruginosa [4], 4 µg/mL.

For `O=C(Nc1ccc(S)cc1)c1cc(Cl)ccc1O`, the MIC in the experiment on Pseudomonas aeruginosa [3] was > 32 µg/mL; in the experiment with Pseudomonas aeruginosa [4], > 32 µg/mL; in the experiment on Pseudomonas aeruginosa [1] it was > 1020 µg/mL.

For the molecule `O=C(O)c1ccc(NC(=O)c2cc(Cl)ccc2O)c(Cl)c1`, the minimal inhibitory concentration (MIC) in the experiment on Pseudomonas aeruginosa [3] was > 32 µg/mL; in the experiment on Pseudomonas aeruginosa [4], > 32 µg/mL; against Pseudomonas aeruginosa [1], > 1020 µg/mL.

With `O=C(Nc1ccc(O)cc1Cl)c1ccc(Br)cc1O`, the MIC in the experiment on Pseudomonas aeruginosa [1] is > 1020 µg/mL.

On to `O=C(Oc1ccc([N+](=O)[O-])cc1Cl)c1cc(Cl)ccc1O`, for which, in the experiment with Pseudomonas aeruginosa [2], the “fractional inhibitory concentration index (FICI)” value was determined as 0.141. Moreover, the MIC in the experiment with Pseudomonas aeruginosa [3] turned out to be 16 µg/mL; in the experiment with Pseudomonas aeruginosa [4] it was 8 µg/mL.

Regarding `CC(=O)N1CCc2cc(NC(=O)c3cc(F)ccc3O)ccc21`, the minimum inhibitory concentration (MIC) in the experiment with Pseudomonas aeruginosa [1] is > 1020 µg/mL.

With `O=C(Nc1ccc([N+](=O)[O-])cc1Cl)c1ccc(O)cc1O`, the MIC with Pseudomonas aeruginosa [3] was > 32 µg/mL; with Pseudomonas aeruginosa [4], > 32 µg/mL; against Pseudomonas aeruginosa [1], > 1020 µg/mL.

As to `O=C(Nc1ccc([N+](=O)[O-])cc1Cl)c1cccc(Br)c1O`, the “fractional inhibitory concentration index (FICI)” value with Pseudomonas aeruginosa [2] stood at 0.254. Moreover, the MIC with Pseudomonas aeruginosa [3] worked out at 16 µg/mL; in the experiment with Pseudomonas aeruginosa [4] it was 1 µg/mL.

As for `O=C(Nc1cccnc1)c1cc(Cl)ccc1O`, the minimum inhibitory concentration (MIC) in the experiment on Pseudomonas aeruginosa [3] is > 32 µg/mL; with Pseudomonas aeruginosa [4], > 32 µg/mL; with Pseudomonas aeruginosa [1] it was > 1020 µg/mL.

On to `O=C(Nc1ccc2[nH]c(=O)sc2c1)c1cc(F)ccc1O`, for which the minimum inhibitory concentration (MIC) in the experiment on Pseudomonas aeruginosa [1] was > 1020 µg/mL.

Consider `O=C(Nc1ccc(O)cc1Cl)c1cc(F)ccc1O`, for which, in the experiment on Pseudomonas aeruginosa [1], the MIC is > 1020 µg/mL.

In the case of `O=C(Nc1ccc([N+](=O)[O-])cc1Cl)c1cc(Cl)ccc1O` [NICLOSAMIDE], the “fractional inhibitory concentration index (FICI)” value in the experiment on Pseudomonas aeruginosa [2] was determined as 0.01. Moreover, the minimal inhibitory concentration (MIC) in the experiment with Pseudomonas aeruginosa [3] and in the experiment with Pseudomonas aeruginosa [4] was 2 µg/mL each time.

`O=C(Nc1ccc([N+](=O)[O-])cc1Cl)c1cccc(Cl)c1`: the minimum inhibitory concentration (MIC) in the experiment with Pseudomonas aeruginosa [3] is > 32 µg/mL; in the experiment on Pseudomonas aeruginosa [4], > 32 µg/mL; in the experiment on Pseudomonas aeruginosa [1], > 1020 µg/mL.

With `O=C(Nc1ccc([N+](=O)[O-])cc1Cl)c1cccc(F)c1O`, in the experiment with Pseudomonas aeruginosa [2], the “fractional inhibitory concentration index (FICI)” value is given as 0.129. In addition, the results for the minimal inhibitory concentration (MIC) in the experiment on Pseudomonas aeruginosa [3] and with Pseudomonas aeruginosa [4] were 32 µg/mL and 1 µg/mL, respectively.

The values above are taken from ChEMBL document CHEMBL5131512, “Novel niclosamide-derived adjuvants elevating the efficacy of polymyxin B against MDR Pseudomonas aeruginosa DK2” (Eur J Med Chem, 2022).
